Test system: Plasmodium berghei
Test: Luciferase/luciferin-expressing antifolate-resistant parasites were used to infect a culture of HepG2 cells that were pre-incubated with compounds. Infected hepatocytes emit light due to the luciferase reaction. Assay results are presented as the percent inhibition of light emission compared to control. […]
Type: functional
Conditions: sporozoite; for IC90: read-out: LUCIFERASE INFECTION ASSAY - IC90

SMILES	IC90 [nM]	further results
Cc1noc(C)c1COc1cccc(C(=O)OCC(=O)N2CC(=O)Nc3ccccc32)c1	> 10000	IC50 (HEPG2TOX_HILL_SLOPE 1.25, HEPG2TOX_R_SQUARED 0.939, PBLUC_HILL_SLOPE 2.73, PBLUC_R_SQUARED 0.35, read-out: LUCIFERASE INFECTION ASSAY - IC50): 6680 nM
CCCc1c(O)nc2ccc(C)cc2c1C	> 15300	IC50 (HEPG2TOX_HILL_SLOPE 1.25, HEPG2TOX_R_SQUARED 0.942, PBLUC_HILL_SLOPE 1.62, PBLUC_R_SQUARED 0.0626, read-out: LUCIFERASE INFECTION ASSAY - IC50): 11300 nM
CCCNc1nc(-c2ccccc2)c(C(=O)OCC)cc1C#N	3120	IC50 (HEPG2TOX_HILL_SLOPE 1.25, HEPG2TOX_R_SQUARED 0.958, PBLUC_HILL_SLOPE 3.81, PBLUC_R_SQUARED 0.673, read-out: LUCIFERASE INFECTION ASSAY - IC50): 1750 nM
CN(C)c1ccc(/C=C/c2ccc3ccccc3[n+]2C)cc1	2350	IC50 (HEPG2TOX_HILL_SLOPE 1.22, HEPG2TOX_R_SQUARED 0.944, PBLUC_HILL_SLOPE 2.39, PBLUC_R_SQUARED 0.798, read-out: LUCIFERASE INFECTION ASSAY - IC50): 935 nM
CC(C)c1ccc(-n2c(-c3ccccc3)c[n+]3c2CCc2ccccc2-3)cc1	1230	IC50 (HEPG2TOX_HILL_SLOPE 1.23, HEPG2TOX_R_SQUARED 0.988, PBLUC_HILL_SLOPE 3.39, PBLUC_R_SQUARED 0.644, read-out: LUCIFERASE INFECTION ASSAY - IC50): 642 nM
COc1cc(-c2cnc3cnc(-c4ccc(NCCN5CCOCC5)nc4)cn23)ccc1O	> 7390	IC50 (HEPG2TOX_HILL_SLOPE 1.25, HEPG2TOX_R_SQUARED 0.41, PBLUC_HILL_SLOPE 2.45, PBLUC_R_SQUARED 0.19, read-out: LUCIFERASE INFECTION ASSAY - IC50): 6150 nM
Cn1ccc2cc(-c3cnc4cnc(-c5cccc(C(N)=O)c5)cn34)ccc21	> 8980	IC50 (HEPG2TOX_HILL_SLOPE 1.25, HEPG2TOX_R_SQUARED 0.898, PBLUC_HILL_SLOPE 0.953, PBLUC_R_SQUARED 0.66, read-out: LUCIFERASE INFECTION ASSAY - IC50): 1230 nM
CC(Nc1ncnc2ccsc12)c1nc2ccccc2n1C(F)F (configuration not stated)	7920	IC50 (HEPG2TOX_HILL_SLOPE 1.22, HEPG2TOX_R_SQUARED 0.959, PBLUC_HILL_SLOPE 2.24, PBLUC_R_SQUARED 0.732, read-out: LUCIFERASE INFECTION ASSAY - IC50): 2970 nM
CS(=O)(=O)Nc1nc(-c2ccccn2)nc2scc(-c3ccccc3)c12	3290	IC50 (HEPG2TOX_HILL_SLOPE 1.24, HEPG2TOX_R_SQUARED 0.884, PBLUC_HILL_SLOPE 3.45, PBLUC_R_SQUARED 0.254, read-out: LUCIFERASE INFECTION ASSAY - IC50): 1740 nM
O=C(NCCO)c1cccc(-c2ccc3ncc(-c4cccc(Cl)c4)n3n2)c1	3560	IC50 (HEPG2TOX_HILL_SLOPE 1.24, HEPG2TOX_R_SQUARED 0.781, PBLUC_HILL_SLOPE 15.2, PBLUC_R_SQUARED 0.219, read-out: LUCIFERASE INFECTION ASSAY - IC50): 3080 nM
CCOC(=O)c1c(C)[nH]c(C(=O)C(C)OC(=O)c2n[nH]c(=O)c3ccccc23)c1C (configuration not stated)	> 10000	IC50 (HEPG2TOX_HILL_SLOPE 1.25, HEPG2TOX_R_SQUARED 0.561, read-out: LUCIFERASE INFECTION ASSAY - IC50): > 10000 nM
O=C(c1cnc2cc3c(cc2c1)OCCO3)c1cc(F)ccc1O	2410	IC50 (HEPG2TOX_HILL_SLOPE 1.24, HEPG2TOX_R_SQUARED 0.963, PBLUC_HILL_SLOPE 1.6, PBLUC_R_SQUARED 0.807, read-out: LUCIFERASE INFECTION ASSAY - IC50): 612 nM
O=C(NCCC1=CCCCC1)c1cc2ccccc2c(=O)[nH]1	> 10000	IC50 (HEPG2TOX_HILL_SLOPE 1.23, HEPG2TOX_R_SQUARED 0.699, PBLUC_HILL_SLOPE 12.6, PBLUC_R_SQUARED 0.339, read-out: LUCIFERASE INFECTION ASSAY - IC50): 9570 nM
COc1ccc(S(=O)(=O)N(Cc2cccs2)c2ccc3c(c2)OCCO3)cc1NC(C)=O	> 10000	IC50 (HEPG2TOX_HILL_SLOPE 1.25, HEPG2TOX_R_SQUARED 0.989, PBLUC_HILL_SLOPE 1.59, PBLUC_R_SQUARED 0.297, read-out: LUCIFERASE INFECTION ASSAY - IC50): 4150 nM
OCc1cccc(-c2ccc3ncc(-c4cccc(Cl)c4)n3n2)c1	2730	IC50 (HEPG2TOX_HILL_SLOPE 1.23, HEPG2TOX_R_SQUARED 0.98, PBLUC_HILL_SLOPE 1.42, PBLUC_R_SQUARED 0.52, read-out: LUCIFERASE INFECTION ASSAY - IC50): 582 nM
Cn1ccc2cc(-c3cnc4cnc(-c5ccc6c(c5)OCO6)cn34)ccc21	41.3	IC50 (HEPG2TOX_HILL_SLOPE 1.26, HEPG2TOX_R_SQUARED 0.912, PBLUC_HILL_SLOPE 10.9, PBLUC_R_SQUARED 0.837, read-out: LUCIFERASE INFECTION ASSAY - IC50): 33.8 nM

SMILES	IC90 [nM]	further results
Cc1cccc(C2CC(=O)c3cnn(-c4nc(C)cc(C)n4)c3C2)c1 (configuration not stated)	1390	IC50 (HEPG2TOX_HILL_SLOPE 1.23, HEPG2TOX_R_SQUARED 0.907, PBLUC_HILL_SLOPE 2.7, PBLUC_R_SQUARED 0.565, read-out: LUCIFERASE INFECTION ASSAY - IC50): 617 nM
O=C(NNC(=O)c1ccccc1OCc1cn2ccccc2n1)c1ccc2ccccc2n1	1740	IC50 (HEPG2TOX_HILL_SLOPE 1.26, HEPG2TOX_R_SQUARED 0.832, PBLUC_HILL_SLOPE 7.59, PBLUC_R_SQUARED 0.237, read-out: LUCIFERASE INFECTION ASSAY - IC50): 1310 nM
O=C(NCc1ccccc1OC1CCCC1)Nc1nnc(C2CC2)s1	7550	IC50 (HEPG2TOX_HILL_SLOPE 1.24, HEPG2TOX_R_SQUARED 0.927, PBLUC_HILL_SLOPE 4.07, PBLUC_R_SQUARED 0.516, read-out: LUCIFERASE INFECTION ASSAY - IC50): 4400 nM
Cc1cc(C(=O)/C(C#N)=N/Nc2cccc(Cl)c2)n(C(C)(C)C)n1	> 9600	IC50 (HEPG2TOX_HILL_SLOPE 1.25, HEPG2TOX_R_SQUARED 0.973, PBLUC_HILL_SLOPE 1.27, PBLUC_R_SQUARED 0.674, read-out: LUCIFERASE INFECTION ASSAY - IC50): 3490 nM
O=C(N/N=C(\Cc1ncc[nH]1)c1ccccc1)c1cccs1	4170	IC50 (HEPG2TOX_HILL_SLOPE 1.23, HEPG2TOX_R_SQUARED 0.975, PBLUC_HILL_SLOPE 4.09, PBLUC_R_SQUARED 0.691, read-out: LUCIFERASE INFECTION ASSAY - IC50): 2440 nM
CCN(CCNc1ncnc2sc3c(c12)CCC3)c1cccc(C)c1	1440	IC50 (HEPG2TOX_HILL_SLOPE 1.22, HEPG2TOX_R_SQUARED 0.961, PBLUC_HILL_SLOPE 11.3, PBLUC_R_SQUARED 0.508, read-out: LUCIFERASE INFECTION ASSAY - IC50): 1180 nM
Cc1ccc(C)c(OC2CCN(C(=O)Nc3cc(C)on3)CC2)c1	1370	IC50 (HEPG2TOX_HILL_SLOPE 1.23, HEPG2TOX_R_SQUARED 0.839, PBLUC_HILL_SLOPE 15.3, PBLUC_R_SQUARED 0.595, read-out: LUCIFERASE INFECTION ASSAY - IC50): 1190 nM
COC(=O)c1c(C)[nH]c(C(=O)C(C)OC(=O)Cn2c(C(F)(F)F)nc3ccccc32)c1C (configuration not stated)	> 10000	IC50 (HEPG2TOX_HILL_SLOPE 1.23, HEPG2TOX_R_SQUARED 0.914, read-out: LUCIFERASE INFECTION ASSAY - IC50): > 10000 nM
O=C(NN=c1nc[nH]c2ccccc12)c1c(O)c(O)cc2ccccc12	1340	IC50 (HEPG2TOX_HILL_SLOPE 1.23, 1.37, HEPG2TOX_R_SQUARED 0.873, 0.334, PBLUC_HILL_SLOPE 12.1, 7.99, PBLUC_R_SQUARED 0.334, 0.684, read-out: LUCIFERASE INFECTION ASSAY - IC50): 1070 nM
O=C(NCC1CCCO1)c1cc2c([nH]c3ccccc32)c(-c2ccc(F)cc2)n1 (configuration not stated)	8340	IC50 (HEPG2TOX_HILL_SLOPE 1.25, HEPG2TOX_R_SQUARED 0.9, PBLUC_HILL_SLOPE 2.06, PBLUC_R_SQUARED 0.74, read-out: LUCIFERASE INFECTION ASSAY - IC50): 2860 nM
O=C(Nc1nc2ccccn2c1C(=O)NC1CCCC1)c1ccc(Cl)cc1Cl	2660	IC50 (HEPG2TOX_HILL_SLOPE 1.22, HEPG2TOX_R_SQUARED 0.989, PBLUC_HILL_SLOPE 22.2, PBLUC_R_SQUARED 0.579, read-out: LUCIFERASE INFECTION ASSAY - IC50): 2410 nM
CCOc1cc2ncc(C#N)c(Nc3ccc(F)c(Cl)c3)c2cc1N	6300	IC50 (HEPG2TOX_HILL_SLOPE 1.25, HEPG2TOX_R_SQUARED 0.941, PBLUC_HILL_SLOPE 3.96, PBLUC_R_SQUARED 0.532, read-out: LUCIFERASE INFECTION ASSAY - IC50): 3610 nM
COc1cc(NC(=O)c2cc(N3CCN(c4ccccn4)CC3)ncn2)cc(OC)c1OC	1610	IC50 (HEPG2TOX_HILL_SLOPE 1.23, HEPG2TOX_R_SQUARED 0.824, PBLUC_HILL_SLOPE 2.21, PBLUC_R_SQUARED 0.872, read-out: LUCIFERASE INFECTION ASSAY - IC50): 596 nM
c1cc2c(cc1-c1cn3c(-c4ccc5c(c4)OCO5)cnc3cn1)OCO2	8220	IC50 (HEPG2TOX_HILL_SLOPE 1.25, HEPG2TOX_R_SQUARED 0.883, PBLUC_HILL_SLOPE 2.72, PBLUC_R_SQUARED 0.694, read-out: LUCIFERASE INFECTION ASSAY - IC50): 3660 nM
c1ccc(-n2c(SCc3nc(-c4cccs4)no3)nnc2-c2ccc3c(c2)OCO3)cc1	6690	IC50 (HEPG2TOX_HILL_SLOPE 1.25, HEPG2TOX_R_SQUARED 0.965, PBLUC_HILL_SLOPE 1.25, PBLUC_R_SQUARED 0.656, read-out: LUCIFERASE INFECTION ASSAY - IC50): 1150 nM
